Experimental data: patent US20250206745A1, “PYRROLOPYRIDAZINE DERIVATIVES AND RELATED USES” (NodThera Limited, priority 2023, published 2025)
Where a name gives a salt, the structure may show the parent alone.

What was measured:
[1] = system: IL-1β release upon NLRP3 activation in phorbol 12-myristate 13-acetate (PMA)-differentiated THP-1 cells; assay: THP-1 IC50 Determination Assay; type: cell-based; conditions: Homo sapiens, inhibition of IL-1β release, LPS, nigericin, ELISA
Description: The compounds of the present disclosure were tested for their inhibitory activity against IL-1β release upon NLRP3 activation in phorbol 12-myristate 13-acetate (PMA)-differentiated THP-1 cells.
THP-1 cells stored in liquid nitrogen were thawed in a 37° C. water bath. The cells were added into complete RPMI 1640 medium (FBS (56 mL), 100× Penicillin-Streptomycin (5.6 mL) and 0.05 mM 2-Mercaptoethanol in RPMI 1640 Medium (500 mL)) and centrifuged for 5 min at 1000 rpm. The supernatant was discarded and the cells resuspended into new cell culture medium for culturing. Cells were cultured in cell culture medium and passaged every 3-4 days to maintain cell density between 4×10^5 and 1.5×10^6 cells/mL. The cells were diluted to 0.8×10^6 cells/mL and grown in a T150 flask with PMA (final concentration 5 ng/mL). The flask was incubated in a 37° C. incubator with a humidified atmosphere of 5% CO2 for −40 hours. After −40 hours of PMA differentiation, the flask was washed with DPBS. Cells were digested with Trypsin LE for about 5 min at room temperature, and digestion was terminated using complete RPMI 1640 medium. Cells were centrifuged and resuspended (1000 rpm, 3 min). The supernatant was discarded and cells washed with DPBS, centrifuged and resuspended cells (1000 rpm, 5 min). Cells were plated at 30,000 cells/well in a 384-well PP plate and treated with 25 ng/mL LPS solution diluted in serum-free medium (45 μL). The plate was incubated in a 37° C. incubator with a humidified atmosphere of 5% CO2 for 2 hours. Compounds (from 10 mM DMSO solution) were dispensed and serially diluted by 1:3 eight times, with final 0.5% DMSO concentration. NLRP3 inflammasome was activated with nigericin (5 μL), the plate was centrifuged (1000 rpm, 30 s) and incubated in a 37° C. incubator with a humidified atmosphere of […] for 2 hours. 35 μL/well of supernatant was removed and IL-1β levels determined by ELISA assay (Mabtech 3416-1H-20) according to the manufacturer's instructions.

[2] = system: IL-1β release upon NLRP3 activation in peripheral blood mononuclear cells (PBMC); assay: PBMC IC50 Determination Assay; type: cell-based; conditions: Homo sapiens; inhibition of IL-1β release; PBMC primed with LPS, stimulated with ATP or nigericin; ELISA or HTRF
Description: The compounds of the present disclosure were tested for their inhibitory activity against IL-1β release upon NLRP3 activation in peripheral blood mononuclear cells (PBMC).
Protocol A. PBMC were isolated from buffy coats by density gradient centrifugation on Histopaque-1077 (Sigma, cat no. 10771). Isolated cells were seeded into the wells of a 96-well plate and incubated for 3 h with lipopolysaccharide (LPS). Following medium exchange, the compounds of the present disclosure were added (a single compound per well) and the cells were incubated for 30 min. Next, the cells were stimulated either with ATP (5 mM) or nigericin (10 μM) for 1 h and the cell culture media from the wells were collected for further analysis.
The release of IL-1β into the media was determined by a quantitative detection of IL-1β in the media using an IL-1β enzyme-linked immunosorbent assay (ELISA) Ready-SET-Go!, eBioscience cat. No. 88-7261-88. Briefly, in a first step, high affinity binding plates (Corning, Costar 9018 or NUNC Maxisorp Cat No. 44-2404) were coated overnight at 4° C. with specific capture antibody included in the kit (anti-human IL-1β ref. 14-7018-68). Subsequently, plates were blocked with blocking buffer for 1 h at room temperature (rt) and after washing with a buffer (PBS with 0.05% Tween-20) incubated with protein standard and culture media. After 2 h of incubation at rt, plates were washed and incubated with biotinylated detection antibody included in the kit (anti-human IL-1β Biotin ref. 33-7110-68) for 1 h at rt. Plates were washed and incubated with HRP-streptavidin for 30 min at rt and washed again. The signal was developed after addition of 3,3′,5,5′-tetramethylbenzidine-peroxidase (TMB) until colour appeared and the reaction was stopped by 2 M H2SO4. A microplate spectrophotometer (BioTek) was used to detect signals with 450 nm. The detection range of IL-1β ELISA was […].
Protocol B. PBMC were isolated from buffy coats by density gradient centrifugation on Histopaque-1077 (Sigma, cat no. 10771). Isolated cells were seeded into the wells (280,000 cells/well) of a 96-well plate and incubated for 3 h with lipopolysaccharide (LPS, 1 μg/mL diluted 1000× from a 1 mg/mL stock solution). The compounds of the present disclosure were added (a single compound per well) and the cells were incubated for 30 min. Next, the cells were stimulated with ATP (5 mM final concentration diluted 20× from a 100 mM stock solution) for 1 h and the cell culture media from the wells were collected for further analysis.
The release of IL-1β into the media was determined by quantitative detection of IL-1β in the media using HTRF®, CisBio cat. No. 62HIL1BPEH. Briefly, cell culture supernatant were dispensed directly into the assay plate containing antibodies labelled with the HTRF® donor and acceptor. A microplate spectrophotometer (BMG) was used to detect signals at 655 nm and 620 nm. The detection range of IL-1β HTRF® was 39-6500 pg/mL.

Compound: Cc1cc(Cl)cc(O)c1-c1cc2ccn(CC3CN(C)CCO3)c2nn1 (centres unmarked) [Compound 34, 5-Chloro-3-methyl-2-{7-[(4-methylmorpholin-2-yl)methyl]-7H-pyrrolo[2,3-c]pyridazin-3-yl}phenol hydrochloride]
- IC50 [1]: 300 to 1000 nM
- IC50 [2]: 300 to 1000 nM

Compound: Cc1cc(Cl)cc(O)c1-c1cc2ccn(CC3CCN(C)CC3(F)F)c2nn1 (centres unmarked) [Compound 35, 5-Chloro-2-{7-[(3,3-difluoro-1-methylpiperidin-4-yl)methyl]-7H-pyrrolo[2,3-c]pyridazin-3-yl}-3-methylphenol hydrochloride]
- IC50 [1]: 300 to 1000 nM
- IC50 [2]: 100 to 300 nM

Compound: Cc1cc(Cl)cc(O)c1-c1cc2ccn(CC(=O)N3CCCCC3)c2nn1 [Compound 36, 2-[3-(4-Chloro-2-hydroxy-6-methylphenyl)-7H-pyrrolo[2,3-c]pyridazin-7-yl]-1-(piperidin-1-yl)ethan-1-one]
- IC50 [1]: 300 to 1000 nM
- IC50 [2]: 300 to 1000 nM

Compound: Cc1cc(Cl)cc(O)c1-c1cc2ccn(CC3CCOCC3)c2nn1 [Compound 37, 5-Chloro-3-methyl-2-{7-[(oxan-4-yl)methyl]-7H-pyrrolo[2,3-c]pyridazin-3-yl}phenol]
- IC50 [1]: 300 to 1000 nM
- IC50 [2]: 100 to 300 nM

Compound: Cc1cc(Cl)cc(O)c1-c1cc2ccn(CCN3CCCCC3)c2nn1 [Compound 38, 5-Chloro-3-methyl-2-{7-[2-(piperidin-1-yl)ethyl]-7H-pyrrolo[2,3-c]pyridazin-3-yl}phenol hydrochloride]
- IC50 [1]: 300 to 1000 nM
- IC50 [2]: 300 to 1000 nM

Compound: Cc1cc(Cl)cc(O)c1-c1cc2ccn(CC3CCCN3C)c2nn1 (centres unmarked) [Compound 39, 5-Chloro-3-methyl-2-{7-[(1-methylpyrrolidin-2-yl)methyl]-7H-pyrrolo[2,3-c]pyridazin-3-yl}phenol hydrochloride]
- IC50 [1]: 300 to 1000 nM
- IC50 [2]: 100 to 300 nM

Compound: Cc1cc(Cl)cc(O)c1-c1cc2ccn(CCN3CCCC3=O)c2nn1 [Compound 40, 1-{2-[3-(4-Chloro-2-hydroxy-6-methylphenyl)-7H-pyrrolo[2,3-c]pyridazin-7-yl]ethyl}pyrrolidin-2-one]
- IC50 [1]: 1000 to 3000 nM
- IC50 [2]: 1000 to 3000 nM

Compound: Cc1cc(Cl)cc(O)c1-c1cc2ccn(CC3COCCN3C)c2nn1 (centres unmarked) [Compound 41, 5-Chloro-3-methyl-2-{7-[(4-methylmorpholin-3-yl)methyl]-7H-pyrrolo[2,3-c]pyridazin-3-yl}phenol hydrochloride]
- IC50 [1]: 300 to 1000 nM
- IC50 [2]: 100 to 300 nM

Compound: Cc1cc(Cl)cc(O)c1-c1cc2ccn(CC3CCCOC3)c2nn1 (centres unmarked) [Compound 42, 5-Chloro-3-methyl-2-{7-[(oxan-3-yl)methyl]-7H-pyrrolo[2,3-c]pyridazin-3-yl}phenol]
- IC50 [1]: 300 to 1000 nM
- IC50 [2]: 100 to 300 nM

Compound: Cc1cc(Cl)cc(O)c1-c1cc2ccn(CC3CCCO3)c2nn1 (centres unmarked) [Compound 43, 5-Chloro-3-methyl-2-{7-[(oxolan-2-yl)methyl]-7H-pyrrolo[2,3-c]pyridazin-3-yl}phenol]
- IC50 [1]: 100 to 300 nM
- IC50 [2]: 100 to 300 nM

Compound: CC(=O)NCCn1ccc2cc(-c3c(C)cc(Cl)cc3O)nnc21 [Compound 44, N-{2-[3-(4-Chloro-2-hydroxy-6-methylphenyl)-7H-pyrrolo[2,3-c]pyridazin-7-yl]ethyl}acetamide]
- IC50 [1]: 300 to 1000 nM
- IC50 [2]: 300 to 1000 nM

Compound: Cc1cc(Cl)cc(O)c1-c1cc2ccn(CCN3CCC(=O)C3)c2nn1 [Compound 45, 1-{2-[3-(4-Chloro-2-hydroxy-6-methylphenyl)-7H-pyrrolo[2,3-c]pyridazin-7-yl]ethyl}pyrrolidin-3-one]
- IC50 [1]: 300 to 1000 nM
- IC50 [2]: 300 to 1000 nM

Compound: Cc1cc(Cl)cc(O)c1-c1cc2ccn(C[C@@H]3CCCCN3C)c2nn1 [Compound 46, 5-Chloro-3-methyl-2-(7-{[(2S)-1-methylpiperidin-2-yl]methyl}-7H-pyrrolo[2,3-c]pyridazin-3-yl)phenol hydrochloride]
- IC50 [1]: 100 to 300 nM
- IC50 [2]: 30 to 100 nM

Compound: Cc1cc(Cl)cc(O)c1-c1cc2ccn(C[C@H]3CCCCN3C)c2nn1 [Compound 47, 5-Chloro-3-methyl-2-(7-{[(2R)-1-methylpiperidin-2-yl]methyl}-7H-pyrrolo[2,3-c]pyridazin-3-yl)phenol hydrochloride]
- IC50 [1]: 300 to 1000 nM
- IC50 [2]: 100 to 300 nM

Compound: Cc1cc(Cl)cc(O)c1-c1cc2ccn(CC3COC3)c2nn1 [Compound 48, 5-Chloro-3-methyl-2-{7-[(oxetan-3-yl)methyl]-7H-pyrrolo[2,3-c]pyridazin-3-yl}phenol]
- IC50 [1]: 100 to 300 nM
- IC50 [2]: 100 to 300 nM

Compound: Cc1cc(Cl)cc(O)c1-c1cc2ccn(CC3CCN(C)C4(CC4)C3)c2nn1 (centres unmarked) [Compound 49, 5-Chloro-3-methyl-2-[7-({4-methyl-4-azaspiro[2.5]octan-7-yl}methyl)-7H-pyrrolo[2,3-c]pyridazin-3-yl]phenol hydrochloride]
- IC50 [1]: 300 to 1000 nM
- IC50 [2]: 100 to 300 nM

Compound: Cc1cc(Cl)cc(O)c1-c1cc2ccn(C(=O)N3CCN(C)CC3)c2nn1 [Compound 50, 5-Chloro-3-methyl-2-[7-(4-methylpiperazine-1-carbonyl)-7H-pyrrolo[2,3-c]pyridazin-3-yl]phenol hydrochloride]
- IC50 [1]: 300 to 1000 nM
- IC50 [2]: 3000 to 10000 nM

Compound: Cc1cc(Cl)cc(O)c1-c1cc2ccn(CC3CC4(C3)CN(C)C4)c2nn1 [Compound 52, 5-Chloro-3-methyl-2-[7-({2-methyl-2-azaspiro[3.3]heptan-6-yl}methyl)-7H-pyrrolo[2,3-c]pyridazin-3-yl]phenol hydrochloride]
- IC50 [1]: 100 to 300 nM
- IC50 [2]: 300 to 1000 nM

Compound: CC(=O)N1CCCC(Cn2ccc3cc(-c4c(C)cc(Cl)cc4O)nnc32)C1 (centres unmarked) [Compound 53, 1-(3-{[3-(4-Chloro-2-hydroxy-6-methylphenyl)-7H-pyrrolo[2,3-c]pyridazin-7-yl]methyl}piperidin-1-yl)ethan-1-one]
- IC50 [1]: 100 to 300 nM
- IC50 [2]: 100 to 300 nM

Compound: Cc1cc(C#N)cc(O)c1-c1cc2ccn(CC3CCN(C)CC3)c2nn1 [Compound 54, 3-Hydroxy-5-methyl-4-{7-[(1-methylpiperidin-4-yl)methyl]-7H-pyrrolo[2,3-c]pyridazin-3-yl}benzonitrile]
- IC50 [1]: 300 to 1000 nM
- IC50 [2]: 100 to 300 nM

Compound: Cc1cc(Cl)cc(O)c1-c1cc2ccn(CC3(C#N)CCN(C)CC3)c2nn1 [Compound 55, 4-{[3-(4-Chloro-2-hydroxy-6-methylphenyl)-7H-pyrrolo[2,3-c]pyridazin-7-yl]methyl}-1-methylpiperidine-4-carbonitrile]
- IC50 [1]: 30 to 100 nM
- IC50 [2]: 30 to 100 nM

Compound: Cc1cc(Cl)cc(O)c1-c1cc2ccn(CC3(O)CCN(C)CC3)c2nn1 [Compound 56, 4-{[3-(4-Chloro-2-hydroxy-6-methylphenyl)-7H-pyrrolo[2,3-c]pyridazin-7-yl]methyl}-1-methylpiperidin-4-ol hydrochloride]
- IC50 [1]: < 30 nM
- IC50 [2]: < 30 nM
